Experimental data taken from patent US20110251220A1, “Pharmaceutical compositions comprising gamma secretase modulators” (priority 2008, published 2011).

Key:
[1] = test system: human podocyte cell line; assay: TGFβ-induced apoptosis in human podocyte cell line (Cell Death Detection ELISA); assay type: cell-based
Experimental: The percentage of the apoptotic cells was determined after 24 hours using the Cell Death Detection ELISA (Roche Diagnostics, Mannheim, Germany) according to the manufaturer's protocol.

[2] = test system: male Sprague-Dawley rats; assay: PAN-model of albuminuric glomerular disease; assay type: in vivo, rat; settings: day 5, 500 μg/100 g rat i.p. once per day, compared to PAN alone
Experimental: For the in vivo studies male Sprague-Dawley rats were purchased from Charles River and treated with puromycin aminoglycoside (PAN) to induce albuminuric glomerular disease as described previously (Niranjan et al., “The Notch pathway in podocytes plays a role in the development of glomerular disease.” Nat. Med. 14: 290-298, 2008). Rats were injected PAN (150 mg/kg) once. The test compounds were administered intraperitoneally (500 μg/100 g rat) once per day (n=4 animals per group). Injection of test compounds were started one day after PAN injection. All studies were performed in accordance with the European Union normative. As a positive control one group of rats received gamma secretase inhibitor DAPT.
Urinary albumine was measured at the indicated days as described previously (Sanchez-Nino et al., “The MIF receptor CD74 in diabetic podocyte injury”. J. Am. Soc. Nephrol. 20: 353-362, 2009). For total protein measurement urine samples were centrifuged and pellets were diluted in distilled water. Exton reagent (230 mM sulfosalic acid, 1.4 M sodium sulfate) was added and after 10 minutes absorbance was measured at 620 nm.

[3] = test system: MM cells; assay: Proliferation assay (CellTiter-Glo), concentration of 50% growth inhibition; assay type: cell-based; settings: Homo sapiens; read-out: Concentration at which 50% cell growth inhibition was observed
Experimental: Human MM cell lines used were as follows: NCI-H929, OPM-2, LP-1, RPMI-8226, U266 (DSMZ, Braunschweig, Germany). Cell lines were cultured in RPMI 1640 medium (Biochrom, Berlin, Germany) supplemented with 10% heat-inactivated fetal calf serum (FCS, Gibco, Karlsruhe, Germany), 1 mM sodium pyruvate and 100 units/ml penicillin and 100 μg/ml streptomycin (Gibco). Human osteoclasts were obtained as described in the reference of Zavrski I, Krebbel H, Wildemann B, et al. Proteasome inhibitors abrogate osteoclast differentiation and osteoclast function. Biochem Biophys Res Commun. 2005; 333:200-205. Briefly, peripheral blood mononuclear cells (PBMC) were isolated from whole blood of healthy volunteers, using a Ficoll-Hypaque density gradient. The adherent fraction of the isolated mononuclear cells was cultured for 21 days in MEM medium (Sigma-Aldrich Chemie, Taufkirchen, Germany) supplemented with 10% FCS, 100 U/ml penicillin, 100 μg/ml streptomycin, 50 ng/ml M-CSF, and 25 ng/ml RANKL (osteoclastogenic medium), before coculture experiments and treatment with the inventive compounds started. Human osteoblasts were obtained according to Robey P G, Termine J D. Human bone cells in vitro. Calcif Tissue Int. 1985; 37:453-460 as described in Hecht M, Heider U, Kaiser M, von Metzler I, Sterz J, Sezer O. Osteoblasts promote migration and invasion of myeloma cells through upregulation of matrix metalloproteinases, urokinase plasminogen activator, hepatocyte growth factor and activation of p38 MAPK. Br J Haematol. 2007; 138: 446-458. Briefly, trabecular bone specimens from patients without malignant disease undergoing knee or hip surgery were minced and washed to remove bone marrow cells. The bone fragments were resuspended in Dulbecco's modified Eagle's medium (DMEM)/HAM's F12 medium (Biochrom, Berlin, Germany) supplemented with 10% FCS and cultured in tissue culture flasks until a confluent cell monolayer was obtained. Culturing of functional osteoblasts was confirmed by alkaline phosphatase (ALP) staining (kit from Sigma, USA), realtime RT-PCR analysis of expression of osteoblast markers (ALP, osteocalcin) and by von-Kossa staining before coculture and treatment experiments were started.
The compound according to example 1, hereinafter referred to as GSI15, (compound RH02015SC, Maybridge, Acros Organics, Geel, Belgium) was freshly dissolved as 26 mM stock solution in Dimethylsulfoxide (DMSO). Multiple myeloma therapeutics used were melphalan (marketed as Alkeran®, GlaxoSmithKline, Munich, Germany) and bortezomib (marketed as Velcade®, Janssen-Cilag, Neuss, Germany). Melphalan was freshly dissolved at 10 mg/ml in 0.9% NaCl-solution. Bortezomib was freshly dissolved at 100 ng/ml in 0.9% NaCl solution. Gamma Secretase Inhibitor (GSI) treatment for apoptosis assessment by AnnexinV/PI staining, cell cycle analysis and coculture experiments was performed in 6-well plates. GSI15 stock solution was added directly to the cell suspension. GSI treatment for assaying proliferation was performed in 96-well plates. 10,000 cells per well were seeded in 50 μl medium per well before 50 μl of a 2× solution of GSI15 prediluted in medium were added per well. […]
For assaying proliferation/viability of cells CellTiter-Glo Luminescent Cell Viability Assay (Promega, Mannheim, Germany) was used. In this assay the number of viable cells at a given time point is determined by quantification of ATP present, which serves as a measure of metabolically active cells. […]

[4] = test system: OPM-2 cells; assay: Apoptosis by AnnexinV-FITC/PI staining, OPM-2; assay type: cell-based, human; settings: for cell death: OPM-2, 24 h or 48 h, single agent
Experimental: The compound according to example 1, hereinafter referred to as GSI15, (compound RH02015SC, Maybridge, Acros Organics, Geel, Belgium) was freshly dissolved as 26 mM stock solution in Dimethylsulfoxide (DMSO). Multiple myeloma therapeutics used were melphalan (marketed as Alkeran®, GlaxoSmithKline, Munich, Germany) and bortezomib (marketed as Velcade®, Janssen-Cilag, Neuss, Germany). Melphalan was freshly dissolved at 10 mg/ml in 0.9% NaCl-solution. Bortezomib was freshly dissolved at 100 ng/ml in 0.9% NaCl solution. Gamma Secretase Inhibitor (GSI) treatment for apoptosis assessment by AnnexinV/PI staining, cell cycle analysis and coculture experiments was performed in 6-well plates. GSI15 stock solution was added directly to the cell suspension. GSI treatment for assaying proliferation was performed in 96-well plates. 10,000 cells per well were seeded in 50 μl medium per well before 50 μl of a 2× solution of GSI15 prediluted in medium were added per well. Melphalan and bortezomib treatment as well as their combination with GSI15 for assaying apoptosis by AnnexinV/PI staining was done in 6-well plates. All inhibitors were added directly to the cells in 6-well plates.
For cell cycle analysis 2×10^5 cells were spun down, medium was aspirated and cells washed with PBS. Cells were then resuspended in 250 μl PBS. 1 ml ice-cold 70% ethanol was added, followed by overnight incubation at −20° C. Cells were spun down, the pellet washed with PBS and then resuspended in 200 μl PBS containing 0.15 mg/ml RNaseA and 30 μg/ml propidium iodide (PI). After 10 minutes incubation in the dark at room temperature, cells were analyzed by flow cytometry. The amount of apoptotic cells was determined by AnnexinV/propidium iodide staining using Human AnnexinV-FITC Kit (Bender Medsystems, Vienna, Austria), according to manufacturer's protocol. Briefly, 2×10^5 cells were spun down and washed with PBS, followed by 10 minutes incubation in binding buffer containing AnnexinV-FITC conjugate. Cells were then spun down again, resuspended in binding buffer containing PI and analyzed by flow cytometry.

With `C[C@H](NC(=O)Cc1cc(F)cc(F)c1)C(=O)N[C@H](C(=O)OC(C)(C)C)c1ccccc1` [DAPT, reference compound] the inhibition of apoptosis ([1]; 1 μM, compared to TGFβ alone, 24 hours) was 37%.
In the case of `CC(C)(C)c1ccc(Oc2ncccc2NS(=O)(=O)c2ccccc2C(F)(F)F)cc1` [Example 2, N-(2-(4-tert-butylphenoxy)pyridin-3-yl)-2-(trifluoromethyl)benzenesulfonamide], the “effect in podocyte cell culture experiments” value [1] is reported as “positive effect”, the inhibition at 3 µM ([1]; Homo sapiens, 3 μM, compared to TGFβ alone, 24 hours) is reported as 27% and the inhibition at 10 µM ([1]; Homo sapiens, 10 μM, compared to TGFβ alone, 24 hours) is reported as 27%. It also gave an inhibition of albuminuria [2] of 42%, an inhibition of proteinuria [2] of 37% and an IC50 [3] of 30 µM.
For `Cc1ccc(Sc2ncccc2NS(=O)(=O)c2ccc(Cl)cc2)cc1` [Example 3, 4-chloro-N-(2-(p-tolylthio)pyridin-3-yl)benzenesulfonamide], the IC50 [3] was 30 µM.
In the case of `CC(Sc1nc(=O)cc(N)n1CCc1ccccc1)C(=O)Nc1cccc(Cl)c1` (stereo not shown) [Example 4, 2-(6-amino-4-oxo-1-phenethyl-1,4-dihydropyrimidin-2-ylthio)-N-(3-chlorophenyl)propanamide], the IC50 [3] is reported as 20 µM.
`Nc1cc(=O)nc(SCC(=O)Nc2ccc(Cl)cc2)n1CCc1ccccc1` [Example 5, 2-(6-amino-4-oxo-1-phenethyl-1,4-dihydropyrimidin-2-ylthio)-N-(4-chlorophenyl)acetamide] gave an IC50 [3] of 20 µM.
With `CC(C)C[C@H](NC(=O)[C@H](Cc1ccccc1)NC(=O)c1cnccn1)B(O)O` [bortezomib] the cell death [4] was “dose-dependently triggered cell death”.
In the case of `N[C@@H](Cc1ccc(N(CCCl)CCCl)cc1)C(=O)O` [melphalan], the apoptotic cells ([4]; OPM-2, 50 μM melphalan alone, 24 h) is reported as 32% and the cell death [4] is reported as “dose-dependently triggered cell death”.
